pIC50: −log10 of the molar value.
What was measured:
[1] = test system: MCF7; experiment: Antiproliferative activity against human MCF7 cells by MTT assay; type: functional, cell-based
[2] = test system: HepG2; experiment: Antiproliferative activity against human HepG2 cells by MTT assay; type: functional, cell-based
[3] = test system: HEK293; experiment: Antiproliferative activity against human HEK293 cells by MTT assay; type: cell-based
[4] = test system: COLO 205; experiment: Antiproliferative activity against human COLO205 cells by MTT assay; type: functional, cell-based
[5] = test system: HeLa; experiment: Antiproliferative activity against human HeLa cells by MTT assay; type: functional, cell-based

Row | SMILES | pIC50 ([1]; read-out: IC50) | IC50 ([1]; read-out: pIC50 (converted)) [µM] | pIC50 [2] | IC50 [3] [µg/mL] | pIC50 ([4]; read-out: IC50) | IC50 ([4]; read-out: pIC50 (converted)) [µM] | pIC50 ([5]; read-out: IC50) | pIC50 [3] | IC50 ([5]; read-out: pIC50 (converted)) [µM] | IC50 ([1]; read-out: IC50) [µg/mL] | IC50 [2] [µg/mL] | IC50 ([4]; read-out: IC50) [µg/mL] | IC50 ([5]; read-out: IC50) [µg/mL]
1 | O=c1c2oc3nc(-c4cccs4)cc(C(F)(F)F)c3c2ncn1C1CCCC1 | 4.20 | 63.1 | 4.30 | > 220 | 4.37 | 42.7 | 4.30 | – | – | – | – | – | –
2 | Cc1ccc(/C=N/NC(=O)c2oc3nc(-c4ccccc4)cc(C(F)(F)F)c3c2N)cc1 | 4.99 | 10.2 | 5.05 | – | 5.04 | 9.12 | 4.93 | 4.16 | 11.7 | – | – | – | –
3 | CCCNC(=O)c1oc2nc(-c3cccs3)cc(C(F)(F)F)c2c1N | 4.69 | 20.4 | 4.76 | – | 4.82 | 15.5 | 4.72 | 4.19 | 19.1 | – | – | – | –
4 | O=c1c2oc3nc(-c4cccs4)cc(C(F)(F)F)c3c2ncn1/N=C/c1ccc(Br)cc1 | – | – | – | > 220 | – | – | – | – | – | > 220 | > 220 | > 220 | > 220
5 | CCCn1c(C)nc2c(oc3nc(-c4ccccc4)cc(C(F)(F)F)c32)c1=O | 3.93 | 117 | – | – | – | – | – | 4.28 | – | – | > 220 | > 220 | > 220
6 | O=c1c2oc3nc(-c4ccccc4)cc(C(F)(F)F)c3c2ncn1C1CCCC1 | – | – | – | > 220 | – | – | – | – | – | > 220 | > 220 | > 220 | > 220
7 | CCCn1c(C)nc2c(oc3nc(-c4cccs4)cc(C(F)(F)F)c32)c1=O | 4.50 | 31.6 | 4.64 | – | 4.72 | 19.1 | 4.55 | 4.17 | 28.8 | – | – | – | –
8 | Cn1cnc2c(oc3nc(-c4ccccc4)cc(C(F)(F)F)c32)c1=O | – | – | 3.66 | > 220 | – | 9.77 | – | – | – | > 220 | – | > 220 | > 220
9 | Nc1c(C(=O)N/N=C/c2ccc(Br)cc2)oc2nc(-c3ccccc3)cc(C(F)(F)F)c12 | 4.73 | 18.6 | 4.70 | – | 4.67 | 21.4 | 4.62 | 4.19 | 24 | – | – | – | –
10 | CCn1c(C)nc2c(oc3nc(-c4cccs4)cc(C(F)(F)F)c32)c1=O | – | – | – | > 220 | – | – | – | – | – | > 220 | > 220 | > 220 | > 220
11 | CCCNC(=O)c1oc2nc(-c3ccccc3)cc(C(F)(F)F)c2c1N | 4.45 | 35.5 | 4.43 | – | 4.41 | 38.9 | 4.44 | 4.09 | 36.3 | – | – | – | –
12 | Nc1c(C(=O)N/N=C/c2ccc(Br)cc2)oc2nc(-c3cccs3)cc(C(F)(F)F)c12 | 5.28 | 5.25 | 5.21 | – | 5.23 | 5.89 | 5.19 | 4.07 | 6.46 | – | – | – | –
13 | Nc1c(C(=O)N/N=C/c2ccc(Cl)cc2)oc2nc(-c3ccccc3)cc(C(F)(F)F)c12 | 4.92 | 12 | 4.92 | – | 4.95 | 11.2 | 5.39 | 4.09 | 4.07 | – | – | – | –
14 | O=c1c2oc3nc(-c4ccccc4)cc(C(F)(F)F)c3c2ncn1/N=C/c1ccc(Cl)cc1 | 4.25 | 57.5 | – | > 220 | 4.36 | 43.7 | – | – | – | – | > 220 | – | > 220
15 | CNC(=O)c1oc2nc(-c3ccccc3)cc(C(F)(F)F)c2c1N | 4.43 | 37.2 | 4.39 | – | 4.43 | 37.2 | 4.40 | 4.21 | 45.7 | – | – | – | –
16 | Cn1cnc2c(oc3nc(-c4cccs4)cc(C(F)(F)F)c32)c1=O | – | – | – | > 220 | – | – | – | – | 50.1 | > 220 | > 220 | > 220 | > 220
17 | Cc1nc2c(oc3nc(-c4ccccc4)cc(C(F)(F)F)c32)c(=O)n1C1CCCC1 | 4.64 | 22.9 | 4.77 | – | 4.73 | 18.6 | 4.74 | 4.02 | 18.2 | – | – | – | –
18 | CCNC(=O)c1oc2nc(-c3cccs3)cc(C(F)(F)F)c2c1N | 4.66 | 21.9 | 4.92 | – | 4.73 | 18.6 | 4.85 | 4.21 | 14.1 | – | – | – | –
19 | CCCn1cnc2c(oc3nc(-c4ccccc4)cc(C(F)(F)F)c32)c1=O | 4.07 | 85.1 | – | – | – | – | – | 4.05 | – | – | > 220 | > 220 | > 220
20 | CCn1c(C)nc2c(oc3nc(-c4ccccc4)cc(C(F)(F)F)c32)c1=O | – | – | – | > 220 | – | – | – | – | – | > 220 | > 220 | > 220 | > 220
21 | Cc1ccc(/C=N/NC(=O)c2oc3nc(-c4cccs4)cc(C(F)(F)F)c3c2N)cc1 | 4.73 | 11.2 | 4.70 | – | 4.67 | 10.2 | 4.61 | 4.11 | 9.12 | – | – | – | –

Row | SMILES | pIC50 ([1]; read-out: IC50) | IC50 ([1]; read-out: pIC50 (converted)) [µM] | pIC50 [2] | IC50 [3] [µg/mL] | pIC50 ([4]; read-out: IC50) | IC50 ([4]; read-out: pIC50 (converted)) [µM] | pIC50 ([5]; read-out: IC50) | pIC50 [3] | IC50 ([5]; read-out: pIC50 (converted)) [µM] | IC50 ([1]; read-out: IC50) [µg/mL] | IC50 [2] [µg/mL] | IC50 ([4]; read-out: IC50) [µg/mL] | IC50 ([5]; read-out: IC50) [µg/mL]
22 | Nc1c(C(=O)NC2CCCC2)oc2nc(-c3ccccc3)cc(C(F)(F)F)c12 | 4.22 | 60.3 | 4.49 | – | 4.29 | 51.3 | 4.59 | 4.07 | 25.7 | – | – | – | –
23 | O=c1c2oc3nc(-c4ccccc4)cc(C(F)(F)F)c3c2ncn1/N=C/c1ccccc1 | – | – | – | > 220 | – | – | – | – | – | > 220 | > 220 | > 220 | > 220
24 | Nc1c(C(=O)N/N=C/c2ccc(Cl)cc2)oc2nc(-c3cccs3)cc(C(F)(F)F)c12 | 5.13 | 7.41 | 5.09 | – | 5.11 | 7.94 | 5.10 | 4.08 | 7.94 | – | – | – | –
25 | O=c1c2oc3nc(-c4ccccc4)cc(C(F)(F)F)c3c2ncn1/N=C/c1ccc(Br)cc1 | – | – | – | > 220 | – | – | – | – | – | > 220 | > 220 | > 220 | > 220
26 | Cc1nc2c(oc3nc(-c4cccs4)cc(C(F)(F)F)c32)c(=O)n1C1CCCC1 | – | 11.7 | – | – | – | – | – | 3.91 | – | > 220 | > 220 | > 220 | > 220
27 | CCCn1cnc2c(oc3nc(-c4cccs4)cc(C(F)(F)F)c32)c1=O | – | – | – | > 220 | – | – | – | – | – | > 220 | > 220 | > 220 | > 220
28 | CCNC(=O)c1oc2nc(-c3ccccc3)cc(C(F)(F)F)c2c1N | 4.27 | 53.7 | 4.37 | – | 4.53 | 28.8 | 4.44 | 4.15 | 36.3 | – | – | – | –
29 | O=c1c2oc3nc(-c4cccs4)cc(C(F)(F)F)c3c2ncn1/N=C/c1ccccc1 | – | – | – | – | – | – | 4.37 | 4.05 | 42.7 | > 220 | > 220 | > 220 | –
30 | CCn1cnc2c(oc3nc(-c4cccs4)cc(C(F)(F)F)c32)c1=O | – | – | – | > 220 | – | – | – | – | – | > 220 | > 220 | > 220 | > 220
31 | Nc1c(C(=O)NC2CCCC2)oc2nc(-c3cccs3)cc(C(F)(F)F)c12 | 4.64 | 22.9 | 4.68 | – | 4.74 | 18.6 | 4.66 | 4.29 | 21.9 | – | – | – | –
32 | CNC(=O)c1oc2nc(-c3cccs3)cc(C(F)(F)F)c2c1N | 4.74 | 18.2 | 4.91 | – | 4.75 | 17.8 | 4.81 | 4.12 | 15.5 | – | – | – | –
33 | Cc1nc2c(oc3nc(-c4ccccc4)cc(C(F)(F)F)c32)c(=O)n1C | – | – | – | > 220 | – | – | – | – | – | > 220 | > 220 | > 220 | > 220
34 | O=c1c2oc3nc(-c4cccs4)cc(C(F)(F)F)c3c2ncn1/N=C/c1ccc(Cl)cc1 | 4.38 | 42.7 | – | – | 4.29 | 51.3 | – | 3.99 | – | – | > 220 | – | > 220
35 | Nc1c(C(=O)N/N=C/c2ccccc2)oc2nc(-c3cccs3)cc(C(F)(F)F)c12 | 4.92 | 12 | 5.00 | – | 5.01 | – | 4.93 | 4.14 | 11.7 | – | – | – | –
36 | Cc1ccc(/C=N/n2cnc3c(oc4nc(-c5ccccc5)cc(C(F)(F)F)c43)c2=O)cc1 | – | – | – | > 220 | – | – | – | – | – | > 220 | > 220 | > 220 | > 220
37 | Nc1c(C(=O)N/N=C/c2ccccc2)oc2nc(-c3ccccc3)cc(C(F)(F)F)c12 | 4.85 | 14.1 | 4.88 | – | 4.91 | 12.3 | 4.87 | 4.15 | 13.5 | – | – | – | –
38 | Cc1ccc(/C=N/n2cnc3c(oc4nc(-c5cccs5)cc(C(F)(F)F)c43)c2=O)cc1 | 4.53 | 29.5 | – | > 220 | – | – | 4.37 | – | 42.7 | – | > 220 | > 220 | –
39 | CCn1cnc2c(oc3nc(-c4ccccc4)cc(C(F)(F)F)c32)c1=O | 4.08 | 83.2 | – | – | – | – | – | 3.92 | – | – | > 220 | > 220 | > 220
40 | Cc1nc2c(oc3nc(-c4cccs4)cc(C(F)(F)F)c32)c(=O)n1C | – | – | – | > 220 | – | – | – | – | – | > 220 | > 220 | > 220 | > 220
41 | O=c1[nH]cc(F)c(=O)[nH]1 [FLUOROURACIL] | – | – | 5.77 | – | – | – | – | 4.71 | – | – | – | – | –

Reference: ChEMBL document CHEMBL4118210, “Synthesis of novel hetero ring fused pyridine derivatives; Their anticancer activity, CoMFA and CoMSIA studies” (Bioorg Med Chem Lett, 2018)
